# Measurements as given in patent US8193191B2, “Urotensin II receptor antagonists” (Janssen Pharmaceutica N.V., priority 2006, dated 2012).
# Read-outs that look alike come from different tables or passages of the source.
# Target: T1, rat GPR14 (U-II receptor) (Rattus norvegicus, UniProt P49684)
# T1 construct: expressed in transfected cells
# T1 sequence (P49684 1-386): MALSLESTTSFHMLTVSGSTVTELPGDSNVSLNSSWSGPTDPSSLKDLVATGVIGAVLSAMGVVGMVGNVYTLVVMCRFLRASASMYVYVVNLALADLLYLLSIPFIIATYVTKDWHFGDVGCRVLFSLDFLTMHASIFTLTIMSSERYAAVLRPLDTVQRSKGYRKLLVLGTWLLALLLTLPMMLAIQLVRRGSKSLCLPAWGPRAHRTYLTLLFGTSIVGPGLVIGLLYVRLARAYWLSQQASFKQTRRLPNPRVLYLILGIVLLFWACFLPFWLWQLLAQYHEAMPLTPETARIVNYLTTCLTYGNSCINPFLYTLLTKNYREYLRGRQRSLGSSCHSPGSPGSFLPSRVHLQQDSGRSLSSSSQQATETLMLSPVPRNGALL
# Test: Rat UII Calcium Mobilization FLIPR Assay
# Assay type: cell-based
# Conditions: for inhibition at 10 µM / inhibition at 50 µM: CHO, 5 min, agonist-induced Ca2+ mobilization (FLIPR), CHO cells with rat UII receptor; for inhibition at 10 µM: 10 μM compound, read-out: % I @ 10; for inhibition at 50 µM: 50 μM compound, read-out: % I @ 50
# Source text: To derive these cells, the complete coding sequence of rat U-II (Genbank Accession No. U32673) was amplified by nested PCR from rat heart marathon-Ready cDNA. […] The PCR products were cloned into pcDNA3 (Invitrogen) digested with EcoR I and Xba I. Clones containing rat U-II receptor were verified by complete sequencing of the U-II receptor insert to ensure a lack of PCR-introduced errors. The constructed vector was transfected into CHO cells by using lipofectamine (GIBCO BRL). CHO cells with high expression of rat U-II receptor were selected and established as stable cell lines by using G418. CHO cells were seeded at 25,000 cells per well into 96-well, black-wall, clear-bottom microtiter plates 24 h before assay. Cells in culture media (DMEM/F12 containing 15 mM HEPES, L-glutamine, pyridoxine hydrochloride; 10% fetal bovine serum; 1 mg/mL G418 sulfate; antibiotic-antimycotic; pH 7.4) were loaded with proprietary dye, from the FLIPR Calcium Assay Kit (Molecular Devices), prepared in assay buffer (Hanks Balanced Salts Solution, 20 mM HEPES, 0.1% BSA, 2.5 mM probenecid, pH 7.4), and incubated for 1 h at 37° C. Calcium mobilization determinations were performed at room temperature (23° C.).
# [1] = Inhibition of Acetyl-cyclic[Cys-Phe-Trp-Lys-(2-Nal)-Cys]-NH2 induced Ca2+ mobilization (FLIPR) in CHO cells transfected with rat UII receptor, read-out: IC50
# [2] = average value for the compound tested, read-out: Rat UII FLIPR Average IC50
SMILES,inhibition at 10 µM [%],inhibition at 50 µM [%],IC50 [1] [µM],IC50 [2] [µM]
"COc1ccc(CN2C(=O)c3cccc(N[C@@H]4CCCC[C@H]4NCc4ccccc4)c3C2=O)cc1OC [Cpd 37, 4-(1R,2R)-(2-benzylamino-cyclohexylamino)-2-(3,4-dimethoxy-benzyl)-isoindole-1,3-dione]",62,71,6.9,
"COc1ccc(CN2C(=O)c3cccc(C4=CC5CCC(C4)N5Cc4ccccc4)c3C2=O)cc1OC (centres unmarked) [Cpd 50, 4-(8-benzyl-8-aza-bicyclo[3.2.1]oct-2-en-3-yl)-2-(3,4-dimethoxy-benzyl)-isoindole-1,3-dione]",42,77,17,
"COc1ccc(CN2C(=O)c3cccc(OCCNCc4ccccc4)c3C2=O)cc1OC [Cpd 54, 4-(2-benzylamino-ethoxy)-2-(3,4-dimethoxy-benzyl)-isoindole-1,3-dione]",15,81,21,
"COc1cc(CN2C(=O)c3cccc(N4CC5CCC(C4)N5Cc4ccccc4)c3C2=O)cc(OC)c1 [Cpd 45, 4-(8-benzyl-3,8-diaza-bicyclo[3.2.1]oct-3-yl)-2-(3,5-dimethoxy-benzyl)-isoindole-1,3-dione]",55,40,13,
"COc1cc(CN2C(=O)c3cccc(N4CCN(C(C)C)CC4)c3C2=O)cc(OC)c1OC [Cpd 52, 4-(4-isopropyl-piperazin-1-yl)-2-(3,4,5-trimethoxy-benzyl)-isoindole-1,3-dione]",17,71,18,
"COc1ccc(CN2C(=O)c3cccc(N4CCN(Cc5cc(F)cc(F)c5)CC4)c3C2=O)cc1OC [Cpd 46, 4-[4-(3,5-difluoro-benzyl)-piperazin-1-yl]-2-(3,4-dimethoxy-benzyl)-isoindole-1,3-dione]",48,54,14,
"COc1ccc(C(CCCNS(=O)(=O)c2ccc(Br)s2)N2C(=O)c3cccc(N4CCN([C@H](C)c5ccccc5)CC4)c3C2=O)cc1OC (stereo partly drawn) [Cpd 100, 5-bromo-thiophene-2-sulfonic acid (4-(3,4-dimethoxy-phenyl)-4-{1,3-dioxo-4-[4-(1R)-(1-phenyl-ethyl)-piperazin-1-yl]-1,3-dihydro-isoindol-2-yl}-butyl)-amide]",,,,0.57
"COc1ccc(C(CCCNS(=O)(=O)c2ccc(Cl)s2)N2C(=O)c3cccc(N4CCN([C@H](C)c5ccccc5)CC4)c3C2=O)cc1OC (stereo partly drawn) [Cpd 71, 5-chloro-thiophene-2-sulfonic acid (4-(3,4-dimethoxy-phenyl)-4-{1,3-dioxo-4-[4-(1R)-(1-phenyl-ethyl)-piperazin-1-yl]-1,3-dihydro-isoindol-2-yl}-butyl)-amide]",58,37,1.7,
"COc1ccc(C(CCCNS(=O)(=O)C=Cc2ccccc2)N2C(=O)c3cccc(N4CCN([C@H](C)c5ccccc5)CC4)c3C2=O)cc1OC (stereo partly drawn) [Cpd 111, 2-phenyl-ethenesulfonic acid (4-(3,4-dimethoxy-phenyl)-4-{1,3-dioxo-4-[4-(1R)-(1-phenyl-ethyl)-piperazin-1-yl]-1,3-dihydro-isoindol-2-yl}-butyl)-amide]",,,,0.15
"COc1ccc(C(CCNC(=O)Nc2cccs2)N2C(=O)c3cccc(N4CCN([C@H](C)c5ccccc5)CC4)c3C2=O)cc1OC (stereo partly drawn) [Cpd 121, 1-(3-(3,4-dimethoxy-phenyl)-3-{1,3-dioxo-4-[4-(1R)-(1-phenyl-ethyl)-piperazin-1-yl]-1,3-dihydro-isoindol-2-yl}-propyl)-3-thiophen-2-yl-urea]",,,,0.27
"COc1ccc(CN2C(=O)c3cccc(N4CC5CCC(C4)N5C(C)c4ccccc4)c3C2=O)cc1OC (centres unmarked) [Cpd 32, 2-(3,4-dimethoxy-benzyl)-4-[8-(1-phenyl-ethyl)-3,8-diaza-bicyclo[3.2.1]oct-3-yl]-isoindole-1,3-dione]",73,93,4.9,
"COc1ccc(CN2C(=O)c3cccc(N4CCN(Cc5ccccc5Cl)CC4)c3C2=O)cc1OC [Cpd 31, 4-[4-(2-chloro-benzyl)-piperazin-1-yl]-2-(3,4-dimethoxy-benzyl)-isoindole-1,3-dione]",65,89,4.5,
"COc1ccc(CN2C(=O)c3cccc(N4CCN(CC(C)C)CC4)c3C2=O)cc1OC [Cpd 82, 2-(3,4-dimethoxy-benzyl)-4-(4-isobutyl-piperazin-1-yl)-isoindole-1,3-dione]",,,,4.7
"COc1ccc(CN2C(=O)c3c(C=CS(C)(=O)=O)ccc(N4CCN([C@H](C)c5ccccc5)CC4)c3C2=O)cc1OC [Cpd 62, 2-(3,4-dimethoxy-benzyl)-4-(2-methanesulfonyl-vinyl)-7-[4-(1R)-(1-phenyl-ethyl)-piperazin-1-yl]-isoindole-1,3-dione]",99,102,0.72,
"COc1ccc(CN2C(=O)c3cccc(N4CCN(Cc5cccc(Cl)c5)CC4)c3C2=O)cc1OC [Cpd 44, 4-[4-(3-chloro-benzyl)-piperazin-1-yl]-2-(3,4-dimethoxy-benzyl)-isoindole-1,3-dione]",42,79,12,
"C#CC(c1ccccc1)N1CCN(c2cccc3c2C(=O)N(Cc2ccc(OC)c(OC)c2)C3=O)CC1 (centres unmarked) [Cpd 35, 2-(3,4-dimethoxy-benzyl)-4-[4-(1-phenyl-prop-2-ynyl)-piperazin-1-yl]-isoindole-1,3-dione]",55,65,6.3,

# More lines, now with the values ahead:
inhibition at 10 µM [%],inhibition at 50 µM [%],IC50 [1] [µM],IC50 [2] [µM],SMILES
,,,0.92,"COc1ccc(C(CCCNS(=O)(=O)c2cc(S(=O)(=O)c3ccccc3)cs2)N2C(=O)c3cccc(N4CCN([C@H](C)c5ccccc5)CC4)c3C2=O)cc1OC (stereo partly drawn) [Cpd 92, 4-benzenesulfonyl-thiophene-2-sulfonic acid (4-(3,4-dimethoxy-phenyl)-4-{1,3-dioxo-4-[4-(1R)-(1-phenyl-ethyl)-piperazin-1-yl]-1,3-dihydro-isoindol-2-yl}-butyl)-amide]"
78,15,1.5,,"COc1ccc(CN2C(=O)c3cccc(N4CCN(C5CCc6ccccc65)CC4)c3C2=O)cc1OC (centres unmarked) [Cpd 20, 2-(3,4-dimethoxy-benzyl)-4-(4-indan-1-yl-piperazin-1-yl)-isoindole-1,3-dione]"
25,60,32,,"COc1cc(CN2C(=O)c3cccc(N4CCN(Cc5ccccc5)CC4)c3C2=O)ccn1 [Cpd 58, 4-(4-benzyl-piperazin-1-yl)-2-(2-methoxy-pyridin-4-ylmethyl)-isoindole-1,3-dione]"
100,100,1.9,,"COc1ccc(CN2C(=O)c3cccc(N4CCN(CCc5ccccc5)CC4)c3C2=O)cc1OC [Cpd 22, 2-(3,4-dimethoxy-benzyl)-4-(4-phenethyl-piperazin-1-yl)-isoindole-1,3-dione]"
98,101,0.49,,"COc1ccc(CN2C(=O)c3cccc(N4CCN([C@@H](C)c5ccccc5)CC4)c3C2=O)cc1OC [Cpd 14, 2-(3,4-dimethoxy-benzyl)-4-[4-(1S)-(1-phenyl-ethyl)-piperazin-1-yl]-isoindole-1,3-dione]"
63,82,6.5,,"COc1ccc(CN2C(=O)c3cccc(N4CCN(Cc5cccc(C)c5)CC4)c3C2=O)cc1OC [Cpd 36, 2-(3,4-dimethoxy-benzyl)-4-[4-(3-methyl-benzyl)-piperazin-1-yl]-isoindole-1,3-dione]"
50,97,10,,"O=C1c2cccc(N3CCN(Cc4ccccc4)CC3)c2C(=O)N1CCc1ccncc1 [Cpd 43, 4-(4-benzyl-piperazin-1-yl)-2-(2-pyridin-4-yl-ethyl)-isoindole-1,3-dione]"
55,78,10,,"COc1ccc(CN2C(=O)c3cccc(N4C[C@@H](C)N(Cc5ccccc5)[C@@H](C)C4)c3C2=O)cc1OC [Cpd 42, (3R,5S)-4-(4-benzyl-3,5-dimethyl-piperazin-1-yl)-2-(3,4-dimethoxy-benzyl)-isoindole-1,3-dione]"
57,69,9.8,,"CCCOc1ccc(CN2C(=O)c3cccc(N4CCN([C@H](C)c5ccccc5)CC4)c3C2=O)cc1OC [Cpd 41, 2-(3-methoxy-4-propoxy-benzyl)-4-[4-(1R)-(1-phenyl-ethyl)-piperazin-1-yl]-isoindole-1,3-dione]"
